# Results: patent US10881677B2, “Composition for modulating IRAK1” (Agency for Science, Technology and Research, priority 2015, dated 2021)
# Entries after “also recorded” stand apart in the source; their conditions may differ.
# Legend:
# [1] = test system: SUM159PR or MDA231PR; test: Acquired Paclitaxel resistance of stepwise-selected resistant sublines; format: cell-based; details: SUM159PR kept in 1 μM, MDA231PR in 75 nM Paclitaxel
# Method: (§1) To establish the Paclitaxel acquired resistant TNBC cell lines, both SUM159PT and MDA231 cells were used. […] During these treatment cycles, only cells with a high intrinsic resistance or those which had acquired resistance to the drug survived. The cycle was further repeated until the stable resistant cell line (SUM159PR or MDA231PR) SUM159PR cells were stably maintained in 1 μM Paclitaxel and MDA231 in 75 nM of Paclitaxel with complete medium, making them at least ˜1000-fold more resistant than their parental cell lines.
# [2] = test system: BT549, MB436, MB468, MDA231 and MDA231-LM2 cells; test: Mammosphere formation assay; format: cell-based; details: for mammosphere forming capacity after Paclitaxel pretreatment: MDA231 cells, 10 nM Paclitaxel 4 days, remaining viable cells; for mammosphere growth: 5 μM IRAK-inh
# Method: Active growing cells were treated with 0.05% trypsin for 10 minutes then passed through […] cell strainer to achieve single cell suspension. Cells were plated (MDA231: 1×10^4; MB436: 3×10^4; MB468: 4×10^4 cells/well, BT549: 3×10^4, MDA231-LM2: 3×10^4) seeded in 6-well ultra-low attachment plates (Corning, Corning, N.Y., cat: CLS3471) in Mammocult medium (Stem cell Technologies, Vancouver, BC, Canada), supplemented with fresh hydrocortisone (0.51 μg/ml) and heparin (1:500). Tumorspheres were cultured for 7 days prior to being counted and photographed. Imaging and quantification were done using GelCount™ apparatus and associated software (Oxford Optronix, Abingdon, UK). For serial passages of tumorsphere formation assay, the spheres were collected by gentle centrifugation, dissociated to single cells for passaging tumorspheres every 14 days and counted. Tumorspheres were photographed and quantified 7-12 days later using a GelCount Colony Counter after staining with INT.
# [3] = test system: SUM159PT; test: Paclitaxel EC50 in parental SUM159PT cells; format: cell-based; details: Homo sapiens, SUM-159-PT, read-out: intrinsic EC50 to Paclitaxel
# Method: as §1
# (§2) For cell proliferation assay, the optimal cell seeding was first determined empirically for all cell lines by examining the growth of a wide range of seeding densities in a 96-well format to identify conditions that permitted proliferation for 7 days. Cells were then plated at the optimal seeding density 24 h before siRNA or drug treatment in triplicate. Plates were incubated for 7 days at 37° C. in 5% CO2. Cells were then lysed with CellTiter-Glo (CTG) (Promega, Madison, Wis.) and chemiluminescent signal was detected with a microplate reader on Day 0, 1, 3, 5 and 7. In addition, an untreated plate of cells was harvested at the time of drug or siRNA addition (T0) to quantify the starting number of cells. CTG values obtained after the 7 day treatment were expressed as percentages of the T0 value and plotted against time of treatment.
# [4] = test system: ALDH-positive cell population; test: ALDEFLUOR assay; format: cell-based; details: after paclitaxel treatment
# Method: ALLEFLUOR assay was performed using the manufacturer's recommended protocol (ALDEFLUOR kit, Stemcell Technologies; catalogue number: #01700). In brief, one million single-cell suspensions were centrifuged and resuspended in ALDEFLUOR assay buffer supplied in the kit. Each sample cells were incubated with or without an ALDH-specific inhibitor 15 mM diethylaminobenzaldehyde in the presence of 0.15 mM ALDH substrate. ALDEFLUOR stainings were detected using fluorescein isothiocyanate channel of a FACSCalibur Flow Cytometry System (BD Biosciences) after 25 min incubation at 37° C. Diethylaminobenzaldehyde inhibitor control sample was used as sorting gate reflecting background fluorescence levels for each cell lines.
# [5] = test system: IL1B, IL6 and IL8 mRNAs in MDA231 cells; test: qRT-PCR of cytokine mRNAs after chemotherapy; format: cell-based; details: 5 nM PTX, VCR 3 days
# Method: Total RNA was isolated by using Qiazol (Life technologies, Carlsbad, Calif.) and purified with the RNeasy Mini Kit (Qiagen, Valencia, Calif.). Reverse transcription and quantitative PCR assays were performed using High Capacity cDNA Archive kit and KAPA SyBr Fast qPCR kit (KAPA Biosystems, Wilmington, Mass.). For quantification of mRNA levels, 18S level was used as an internal control. All reactions were analyzed in an Applied Biosystems PRISM 7500 Fast Real-Time PCR system in 96-well plate format.
# [6] = test system: MDA231-PR cells; test: Cell viability IC50 curves, sensitivity of paclitaxel-resistant cells to agents; format: cell-based
# Source text: FIG. 17. (a). IC50 curves showing cell viability after treatment with paclitaxel (PTX), vincristine (VCR), gemcitabine, doxorubicin (ADR), cisplatin, 5-fluorouracil (5-FU) and pacritinib in parental and pacitaxel-treated MDA-MB-231 (MDA231-PR) cells. (b). Graphical representation of relative sensitivities. (c).
# as §2
# [7] = biological target: T1, p-IRAK1 (T209) (Homo sapiens, UniProt P51617); test: Western blot of p-IRAK1 in immunoprecipitated IRAK1; format: cell-based; details: for induction of p-IRAK1 by chemotherapeutic agent: MDA231 (also SUM159) cells, PTX 5 nM, ADR 2 μM, Cisplatin 5 μM, up to 48 hours
# T1 construct: The whole cell lysate were extracted with the NE-PER kit (Pierce Biotechnology) and subjected to immunoprecipitation using 2 μg total-IRAK1 antibody; endogenous in cells; host or cells: TNBC cell lines (BT549, MB436, MB468, MDA231, MDA231-LM2, SUM159 and paclitaxel-resistant sublines)
# Method: (§3) Western Blotting was performed as described previously (8). IRAK1 (Cat no: #4359), IRAK4 (Cat no.: 4363), cleaved PARP (Cat no.: #9541), p38 MAPK (Cat no.: #9212), phospho-p38 MAPK (T180/Y182) (Cat no.: #9211), phospho-NF-KappaB p65 (S536) (Cat no. #3031) were purchased from Cell Signaling (Danvers, Mass.). Phospho-IRAK1 (T209) antibody was purchased from Assay Biotech (Sunnyvale, Calif., Cat no.: A1074) and phospho-IRAK1 (S376) antibody from Genetex (Irvine, Calif., Cat no.: GTX50994). MCL-1 antibody was purchased from Santa Cruz Biotechnology (Santa Cruz, Calif., Cat no.: sc-819). Actin was purchased from Sigma-Aldrich (St Louis, Mo., Cat no.: A5441). Detection of bands was performed with the ChemiDoc™ MP Imaging Systems (Bio-Rad, Hercules, Calif.) and bands were subjected to further densitometric analysis with Image Lab software (Version 4.1, Bio-rad, Hercules, Calif.).
# Co-IP was performed as described previously (9). The whole cell lysate were extracted with the NE-PER kit (Pierce Biotechnology) and subjected to immunoprecipitation using 2 μg total-IRAK1 antibody (Santa Cruz Biotech, Santa Cruz, Calif., Cat no.: sc-7883). The precipitated protein complex was captured using protein A-Agarose beads (Roche) and extensively washed with the washing buffer (50 mM Tris-HCl, 150 mM NaCl, 0.1% triton). The precipitated proteins were dissolved in SDS sample buffer along with 3 mM DTT, and subjected to immunoblotting analysis. Phospho-IRAK1 (T209) (Assay Biotechnology, Sunnyvale, Calif., Cat no.: A1074) was used for detection.
# [8] = test system: non-cancerous MCF10A and HMLE cells; test: 3D Matrigel growth of non-cancerous cells; format: cell-based; details: 5 uM IRAK-inh, one week
# [9] = test system: MDA231-LM2 cells; test: Mammary fat pad MDA231-LM2 xenograft, lung metastasis by bioluminescence imaging; format: in vivo, NOD/SCID mice; details: for lung metastasis: IRAK-inh 4 mg/kg, qd, ip, 14 days, started 7 days before primary tumor removal
# [10] = test system: BT549, MB436, MB468, MDA231 and MDA231-LM2 cells; test: 3D Matrigel growth of TNBC cells; format: cell-based; details: 5 μM IRAK-inh
# Method: 8-well chamber slides (Falcon, cat: 354656, Falcon) were precoated with 7.6 mg/mL growth factor-reduced Matrigel (Falcon, cat: 354230, Falcon) for 30 min at 37° C. Approximately 5×10^3 for MDA231, 1×10^4 for MB436 and MB468, 1.5×10^4 cells for BT549 with indicated treatments were seeded in each well with DMEM containing 10% (vol/vol) FBS and 150 μg/mL Matrigel. Medium were replenished every 3 days and cell growth was monitored every 3 days by imaging over duration of 10-14 days.
# [11] = test system: p38-MCL-1 signaling in SUM159-PR cells; test: Western blot of p-p38, MCL-1 and cleaved PARP; format: cell-based; details: inhibitor with Paclitaxel
# Method: as §3
# [12] = biological target: IRAK1 (Homo sapiens, UniProt P51617); details: recently shown in Myelodysplastic Syndrome (ref 20); cited from earlier work
# [13] = test system: MDA231 and SUM159 parental and Paclitaxel-resistant sublines (PR); test: Cell viability of parental and Paclitaxel-resistant sublines, combination treatment; format: cell-based
# Method: as §2
# [14] = test system: SUM159-PR and MDA231-PR cells; test: Apoptosis by FACS analysis of Sub-G1 cells; format: cell-based; details: Paclitaxel-resistant cells
# Method: Cell cycle analysis was done by DNA content quantification to quantify the sub-G1 population which is reflective of the extent of cell death. Briefly, the cells were fixed with 70% ethanol and stained with propidium iodide (50 μg/ml) staining. The stained cells were analyzed by FACScalibur (BD Bioscience) and quantified by using CellQuest software (BD bioscience).
# [15] = test system: IL-6, IL-8 and CXCL1 secretion; test: ELISA of cytokine secretion; format: cell-based
# Method: IL-6, IL-8 and CXCL1 levels were assessed using ELISA assay kit (Boster Bio, Pleasanton, Calif.). Supernates of the mammosphere formation assay were collected after 10 days in culture. 1:50 dilution was performed on the supernates before quantifying the amount of cytokines according to the manufacturer's protocol. For cytokine antibody array, supernates collected from the NS or shIRAK1 MB436 mammospheres after 10 days in culture were used directly without further dilution. Semi-quantitative detection of 120 human cytokines and chemokines in the supernates were performed using the RayBio® C-series Human Cytokine Antibody Array C1000 (RayBiotech, Inc., Norcross, GS, Cat no.: #AAH-CYT-1000-2) as per manufacturer's instructions. Detection of dots was performed with the ChemiDoc™ MP Imaging Systems (Bio-Rad, Hercules, Calif.) and the intensity of dots were quantified by densitometric analysis using the ImageJ software. The raw numerical densitometry data is extracted and subjected to background subtraction before normalizing the signal for each cytokines against the Positive Control signals in each cytokine array.
# T1 sequence (P51617 whole entry): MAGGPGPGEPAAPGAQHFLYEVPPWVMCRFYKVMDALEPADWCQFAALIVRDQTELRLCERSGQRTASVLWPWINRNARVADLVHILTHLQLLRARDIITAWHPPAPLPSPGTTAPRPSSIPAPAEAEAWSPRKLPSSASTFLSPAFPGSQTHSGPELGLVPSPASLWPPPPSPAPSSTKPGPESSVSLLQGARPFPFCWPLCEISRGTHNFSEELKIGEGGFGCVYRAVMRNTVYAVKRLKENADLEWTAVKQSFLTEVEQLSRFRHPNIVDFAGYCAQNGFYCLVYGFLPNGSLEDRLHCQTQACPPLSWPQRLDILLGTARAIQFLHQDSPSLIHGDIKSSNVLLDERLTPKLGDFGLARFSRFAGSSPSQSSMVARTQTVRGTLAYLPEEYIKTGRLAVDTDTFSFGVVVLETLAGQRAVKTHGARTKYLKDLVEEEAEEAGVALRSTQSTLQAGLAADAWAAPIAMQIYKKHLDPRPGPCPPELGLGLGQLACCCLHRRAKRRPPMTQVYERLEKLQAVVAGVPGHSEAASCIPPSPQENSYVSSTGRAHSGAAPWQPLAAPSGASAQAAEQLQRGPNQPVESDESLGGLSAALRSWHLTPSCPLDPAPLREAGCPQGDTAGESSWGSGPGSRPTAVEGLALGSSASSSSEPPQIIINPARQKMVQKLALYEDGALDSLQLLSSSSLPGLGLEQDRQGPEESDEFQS
# IRAK1, sequence (P51617 whole entry, species assumed): as the sequence (P51617 whole entry) above
compound,measurement,setting,value
CC(=O)O[C@H]1C(=O)[C@@]2(C)[C@H]([C@H](OC(=O)c3ccccc3)[C@]3(O)C[C@H](OC(=O)[C@H](O)[C@@H](NC(=O)c4ccccc4)c4ccccc4)C(C)=C1C3(C)C)[C@]1(OC(C)=O)CO[C@@H]1C[C@@H]2O [Paclitaxel],fold more resistant than parental cell lines,[1],≥ 1000 fold
same,mammosphere forming capacity after Paclitaxel pretreatment,[2],increased mammosphere forming capacity
same,mammosphere forming capacity after Paclitaxel pretreatment,[2]; listed as paclitaxel,potentiated mammosphere formation
same,EC50,[3],3.88 nM
same,ALDH-positive cell population,[4],expansion of the ALDH-positive cell population
same,"expression of IL1B, IL6 and IL8 mRNAs",[5],induced
same,shift of the IC50 curve,[6]; MDA231-PR versus parental MDA-MB-231,marked right shift
same,sensitivity of paclitaxel-resistant cells to agent,[6]; paclitaxel-treated/resistant cells over-expressing p-IRAK1,markedly resistant; also recorded: no longer susceptible; also recorded: no longer responsive
same,induction of p-IRAK1 by chemotherapeutic agent,[7],marked induction
same,induction of p-IRAK1 by chemotherapeutic agent,[7]; listed as paclitaxel,marked induction
same,IRAK1 signaling activated by chemotherapeutic agents,[7]; discussion statement,activated
O=C(Nc1nc2ccccc2n1CCN1CCOCC1)c1cccc([N+](=O)[O-])c1 [IRAK-inh],3D Matrigel growth / morphology,[8],no effect
same,lung metastasis,[9]; listed as IRAK1-inh,markedly reduced
same,lung metastasis,[9]; listed as IRAK1-inn,effectively blocked
same,survival of mice carrying TNBC metastasis,[9]; IRAK-inh treatment,extended the survival
same,3D Matrigel growth,"[10]; BT549, MB436 and MB468 cells",marked inhibition
same,3D Matrigel growth,"[10]; MDA231-LM2 cells, 7 days",impaired
same,PARP cleavage,[11],increased PARP cleavage
same,p-p38 and MCL-1 expression,[11],decrease
same,mammosphere growth,"[2]; BT549, MB436 and MB468 cells",marked inhibition
same,mammosphere growth,"[2]; MDA231-LM2 cells, 7 days",impaired
same,activity against IRAK1,[12],potent activity against IRAK1
same,"cell viability, combined with sub-toxic Paclitaxel","[13]; both Paclitaxel-resistant cell lines (MDA231-PR, SUM159-PR), 5 μM IRAK-inh",dramatic loss of cell viability
same,cell death in combination with paclitaxel,"[13]; paclitaxel-resistant MDA231 cells, IRAK-inh 5 μM",dramatic cell death
same,"cell viability, inhibitor on its own","[13]; paclitaxel-resistant MDA231 cells, IRAK-inh 5 μM alone",no effect
same,p-IRAK1 in TNBC cells,[7]; IRAK-inh 5 μM,effectively abolished the p-IRAK1
same,IL-1β-induced p-IRAK1,"[7]; MB436 cells, recombinant IL-1β, IRAK-inh 5 uM",abrogated
same,"apoptosis, combined with Paclitaxel",[14],massive apoptosis
same,IL-8 and CXCL1 secretion,"[15]; IRAK-inh-sensitive TNBC cells, 5 μM IRAK-inh",strong reduction
same,"secretion of IL-6, IL-8 and CXCL1","[15]; Paclitaxel-resistant cells, IRAK1-inh plus Paclitaxel",reduced secretion
